Key:
Assay type in all cases: in vivo, Swiss albino mice
[1] = tested on: Blood levels of ATP and energy related indices; test: Blood ATP and energy related indices in mice after forced swimming stress
Protocol: Swiss albino mice (20±2 g) were fed orally with—(a) 3,8-(OH)2-DBP and (b) 3-OH-DBP (each 25 mg/Kg b.w.), per day, for 7 days. In case of the controls, only vehicle (0.8% carboxymethyl cellulose in water) was administered for seven days of the experiment. The animals were subjected to ‘forced swimming’ for 30 minutes on the 7th day of the experiment [Pliakas, A. M., Carlson, R. R., Neve, R. L., Konradi, C., Nestler, E. J. and Carlezon, W. A. 2001. J. Neurosci., 21(18), 7397-7403]. Immediately after the swimming, blood was collected from all the animals for analysis of ATP and related nucleotides by HPLC [Smolenska, Z., Kaznowska, Z., Zarowny, D., Simmonds, H. A. and Smolenski, R. T. 1999. Rheumatology, 38, 997-1002; Komarova, S. V., Mosharov, E. V., Vitvitsky, V. M. and Ataullakhanov, F. I. 1999. Blood Cell Mol. Dis., 25(13), 170-179; Marquardt, D. L., Gruber, H. E. and Wasserman, S. I. 1984. Proc. Natl. Acad. Sci., 81, 6192-6196]. AEC (adenylate energy charge) was calculated according to the method of Atkinson and Walton [Atkinson D E & Walton G M, Adenosine triphosphate conservation in metabolic regulation, J Biol Chem, 242 (1967) 3239] and TAN (total adenine nucleotides) was calculated according to an established method [Spencer M K & Katz A, Role of glycogen in control of glycolysis and IMP formation in human muscle during exercise, Am J Physiol, 260 (1991) E859].

[2] = tested on: Blood levels of ATP and energy related indices; test: Blood ATP and energy related indices in mice after restraint stress; settings: 25 mg/Kg p.o. 7 days
Protocol: (§1) Swiss albino mice (20±2 g) were fed orally with—(a) 3-OH-DBP and (b) 3,8-(OH)2-DBP (each 25 mg/Kg b.w. per day, for 7 days). In case of the controls, only vehicle (0.8% carboxymethyl cellulose in water) was administered for seven days of the experiment. All the animals of all the groups were subjected to restraint stress (for 60 minutes) on the seventh day of the experiment, 2 hours after drug administration, according to a published method [Figueiredo, H. F., Bodie, B. L., Tauchi, M., Dolgas, C. M. and Herman, J. P. 2003. Endocrinology, 144, 5249-5258]. The model was selected in the present experiment, because restraint stress is a widely used model of acute oxidative stress. Immediately after being exposed to stress, the animals were sacrificed, blood was collected for analysis by HPLC of ATP and related nucleotides [Smolenska, Z., Kaznowska, Z., Zarowny, D., Simmonds, H. A. and Smolenski, R. T. 1999. Rheumatology, 38, 997-1002; Komarova, S. V., Mosharov, E. V., Vitvitsky, V. M. and Ataullakhanov, F. I. 1999. Blood Cell Mol. Dis., 25(13), 170-179; Marquardt, D. L., Gruber, H. E. and Wasserman, S. I. 1984. Proc. Natl. Acad. Sci., 81, 6192-6196], and liver was collected for measurement of superoxide dismutase and catalase activities [Zielinski, S, and Pörtner, H. 2000. Comparative Biochem. Physiol. Part B, 125, 147-[60]. AEC (adenylate energy charge) was calculated according to the method of Atkinson and Walton [Atkinson D E & Walton G M, Adenosine triphosphate conservation in metabolic regulation, J Biol Chem, 242 (1967) 3239] and TAN (total adenine nucleotides) was calculated according to an established method [Spencer M K & Katz A, Role of glycogen in control of glycolysis and IMP formation in human muscle during exercise, Am J Physiol, 260 (1991) E859].

[3] = tested on: Superoxide dismutase (SOD) activity in liver; test: Superoxide dismutase activity in liver of mice after restraint stress; settings: 25 mg/Kg p.o. 7 days, control 0.6
Protocol: as §1, with “Rheumatology, 38, 997-1002; Komarova, S. V., Mosharov, E. V., Vitvitsky, V. M. and Ataullakhanov, F. I. 1999. Blood Cell Mol. Dis., 25(13), 170-179; Marquardt, D. L., Gruber, H. E. and Wasserman, S. I. 1984. Proc. Natl. Acad. Sci., 81, 6192-6196], and liver was collected for measurement of superoxide dismutase and catalase activities [Zielinski, S, and Pörtner, H. 2000. Comparative Biochem. Physiol. Part B, 125, 147-[60].” left out, “E859]. […]” for “E859].”

[4] = tested on: Catalase activity in liver; test: Catalase activity in liver of mice after restraint stress; settings: 25 mg/Kg p.o. 7 days, control 3.9
Protocol: as §1, with “Rheumatology, 38, 997-1002; Komarova, S. V., Mosharov, E. V., Vitvitsky, V. M. and Ataullakhanov, F. I. 1999. Blood Cell Mol. Dis., 25(13), 170-179; Marquardt, D. L., Gruber, H. E. and Wasserman, S. I. 1984. Proc. Natl. Acad. Sci., 81, 6192-6196], and liver was collected for measurement of superoxide dismutase and catalase activities [Zielinski, S, and Pörtner, H. 2000. Comparative Biochem. Physiol. Part B, 125, 147-[60].” left out, “E859]. […]” for “E859].”

How did the “content of ATP, AEC values and ATP/ADP ratio (in blood), in words” value ([1]; albino mice engaged in forced swimming) turn out when `O=c1oc2cc(O)ccc2c2ccccc12` [3-OH-DBP, 3-hydroxydibenzo-α-pyrone] was run?
Its value is “significantly improved”.

And the ATP ([1]; blood, forced swimming, 25 mg/Kg p.o. 7 days, mean ± SEM of 6, control 0.60 ± 0.01)?
The ATP was 0.72 ± 0.03 µM.

And the TAN ([1]; blood, forced swimming, 25 mg/Kg p.o. 7 days, mean ± SEM of 6, control 0.79 ± 0.01)?
Its TAN is 0.90 ± 0.04 µM.

And the AEC ([1]; blood, forced swimming, 25 mg/Kg p.o. 7 days, mean ± SEM of 6, control 0.86 ± 0.003)?
The AEC was 0.89 ± 0.002.

What about the ATP/ADP ratio ([1]; blood, forced swimming, 25 mg/Kg p.o. 7 days, mean ± SEM of 6, control 3.84 ± 0.09) of the same molecule?
Its ATP/ADP ratio is 4.82 ± 0.09.

And the ADP ([2]; mean ± SEM of 6, control 0.14 ± 0.02)?
The ADP was 0.09 ± 0.01 µM.

What about the ATP ([2]; mean ± SEM of 6, control 0.67 ± 0.03) of the same molecule?
Its ATP is 0.66 ± 0.04 µM.

What about the TAN ([2]; mean ± SEM of 6, control 0.76 ± 0.03) of the same molecule?
Its TAN is 0.79 ± 0.05 µM.

And the AEC ([2]; mean ± SEM of 6, control 0.89 ± 0.01)?
Its AEC is 0.90 ± 0.01.

And the ATP/ADP ratio ([2]; mean ± SEM of 6, control 4.90 ± 0.32)?
Its ATP/ADP ratio is 7.04 ± 0.38.

And the “SOD activity in liver” value [3]?
Its value is 0.91 U/gm tissue.

And the “Catalase activity in liver” value [4]?
Its value is 3.5 U/mg tissue.
